Legend:
NRK [1] = test: Detection test with compound of formula V, benign transformed cells NRK (Table II); type: cell-based; conditions: Rattus norvegicus, read-out: inhibition of the growth of the cells
Protocol: (§1) Petri dishes having a diameter of 10 cm are seeded with 10^6 cells to be studied. At the end of 4 hours after seeding, the compound of formula V (with R'=R"=CH3, R'"=H) is added in the form of an aqueous solution containing 0.14 M NaCl, the solution having a volume of 100 microliters. The effect of the compound of formula V is studied at various concentrations.

HeLa [2] = test: Detection test with compound of formula V, malignant cells HeLa (Table II); type: cell-based; conditions: Homo sapiens, read-out: inhibition of the growth of the cells
Protocol: as §1

MRC5 [3] = test: Detection test with compound of formula V, normal cells MRC5 (Table II); type: cell-based; conditions: Homo sapiens, read-out: inhibition of the growth of the cells
Protocol: as §1

NRK B77 [4] = test: Detection test with compound of formula V, malignant cells NRK B77 (Table II); type: cell-based; conditions: Rattus norvegicus, read-out: inhibition of the growth of the cells
Protocol: as §1

CEC = test: Detection test with compound of formula V, normal cells CEC (Table II); type: cell-based, chicken; conditions: Gallus gallus, read-out: inhibition of the growth of the cells
Protocol: as §1

MRC5 [5] = test: Growth inhibition, normal diploid cells MRC5 (Table 1); type: cell-based; conditions: Homo sapiens, 96 h, 4 days, read-out: Cellular growth, percentage of inhibition
Protocol: (§2) The tests are carried out in the following manner:
(§3) A culture medium, constituted by the Eagle minimum medium to which has been added 10% of calf serum, is seed with 2×10^5 cells being studied.
(§4) After 4 days of culture, the inhibition relative to non-treated control cultures is measured.

Toxicity on mice = type: in vivo; conditions: intraperitoneal
Protocol: The study of the toxicity has been carried out on mice. The product of Example 1 is administered intraperitoneally at a dosage of 3 g/kg body weight daily for 8 days.

HeLa [6] = test: Growth inhibition, transformed cells HeLa (Table 1); type: cell-based; conditions: Homo sapiens, 96 h, 4 days, read-out: Cellular growth, percentage of inhibition
Protocol: as §2, §3, §4

NRK [7] = test: Growth inhibition, established line NRK (Table 1); type: cell-based, rat; conditions: 4 days
Protocol: as §2, §3, §4

293 = test: Growth inhibition, transformed cells 293 (Table 1); type: cell-based, human; conditions: 4 days
Protocol: as §2, §3, §4

HEp2 = test: Growth inhibition, transformed cells HEp2 (Table 1); type: cell-based, human; conditions: 4 days
Protocol: as §2, §3, §4

NRK B77 [8] = test: Growth inhibition, transformed cells NRK B77 (Table 1); type: cell-based; conditions: Rattus norvegicus, 96 h, 4 days, read-out: Cellular growth, percentage of inhibition
Protocol: as §2, §3, §4

[9] = biological target: T1, RALD (aldehyde reductase) (Rattus norvegicus, UniProt P51635); test: In vitro test: inhibition of RALD in cellular homogenates of NRK B77 cells; type: biochemical
T1 construct: NADPH, malonic dialdehyde substrate, pH 6
T1 sequence (P51635 1-325): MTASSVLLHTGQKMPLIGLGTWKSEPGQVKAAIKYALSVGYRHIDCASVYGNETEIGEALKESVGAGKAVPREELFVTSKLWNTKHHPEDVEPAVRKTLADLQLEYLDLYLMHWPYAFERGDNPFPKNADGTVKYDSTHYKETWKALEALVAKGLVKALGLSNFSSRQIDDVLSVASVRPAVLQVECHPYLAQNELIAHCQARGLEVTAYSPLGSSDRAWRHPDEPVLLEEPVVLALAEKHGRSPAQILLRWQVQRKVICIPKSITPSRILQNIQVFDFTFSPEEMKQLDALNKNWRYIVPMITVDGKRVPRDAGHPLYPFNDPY
Protocol: Cellular homogenates of NRK B77 cells which contain about 500 micrograms of the enzyme are prepared and incubated with the compound of Example 1 at doses of 0.2 mM, 0.8 mM and 1 mM. The incubation lasts for 15, 30 or 60 minutes.
After incubation, an aliquot is added to the substrate which is 2 mM malonic dialdehyde dissolved in a phosphate buffer of pH 6 containing 0.35 mM of NADPH (co-factor of the enzyme).
The optical density is measured every minute, for 5 minutes, at 340 nm.
The transformation of NADPH into […] causes a linear reduction of the optical density. The inhibiting effect is evaluated by the difference between the variation of the optical density in the controls (without inhibitor) and the variation of the optical density with the inhibitor.

Structure (SMILES): CC(C)(N)C#CC=O
- inhibition at 5 µM (NRK [1]; 0.5 × 10^-5 M): 0%
- inhibition at 100 µM (NRK [1]; 1 × 10^-4 M): 0%
- inhibition at 200 µM (NRK [1]; 2 × 10^-4 M): 0%
- inhibition at 400 µM (NRK [1]; 4 × 10^-4 M): 0%
- inhibition at 600 µM (NRK [1]; 6 × 10^-4 M): 0%
- inhibition at 5 µM (HeLa [2]; 0.5 × 10^-5 M): 0%
- inhibition at 100 µM (HeLa [2]; 1 × 10^-4 M): 18%
- inhibition at 200 µM (HeLa [2]; 2 × 10^-4 M): 36%
- inhibition at 400 µM (HeLa [2]; 4 × 10^-4 M): 78%
- inhibition at 600 µM (HeLa [2]; 6 × 10^-4 M): 91%
- inhibition at 5 µM (MRC5 [3]; MRC5, 0.5 × 10^-5 M): 0%
- inhibition at 100 µM (MRC5 [3]; MRC5, 1 × 10^-4 M): 0%
- inhibition at 200 µM (MRC5 [3]; MRC5, 2 × 10^-4 M): 0%
- inhibition at 400 µM (MRC5 [3]; MRC5, 4 × 10^-4 M): 0%
- inhibition at 600 µM (MRC5 [3]; MRC5, 6 × 10^-4 M): 18%
- inhibition at 5 µM (NRK B77 [4]; NRK B77, 0.5 × 10^-5 M): 0%
- inhibition at 100 µM (NRK B77 [4]; NRK B77, 1 × 10^-4 M): 16%
- inhibition at 200 µM (NRK B77 [4]; NRK B77, 2 × 10^-4 M): 31%
- inhibition at 400 µM (NRK B77 [4]; NRK B77, 4 × 10^-4 M): 57%
- inhibition at 600 µM (NRK B77 [4]; NRK B77, 6 × 10^-4 M): 79%
- inhibition at 5 µM (CEC; 0.5 × 10^-5 M): 0%
- inhibition at 100 µM (CEC; 1 × 10^-4 M): 0%
- inhibition at 200 µM (CEC; 2 × 10^-4 M): 0%
- inhibition at 400 µM (CEC; 4 × 10^-4 M): 10%
- inhibition at 600 µM (CEC; 6 × 10^-4 M): 12%

Structure (SMILES): CC(C)(N)C#CC1(C)CO1 (stereo not shown) [Example 1, 5,6-epoxy-2,5-dimethyl-3-hexyne-2-amine]
- inhibition at 100 µM (MRC5 [5]; MRC5, 1 × 10^-4 M): 0%
- inhibition at 200 µM (MRC5 [5]; MRC5, 2 × 10^-4 M): 0%
- inhibition at 400 µM (MRC5 [5]; MRC5, 4 × 10^-4 M): 0%
- inhibition at 50 µM (MRC5 [5]; MRC5, 5 × 10^-5 M): 0%
- inhibition at 600 µM (MRC5 [5]; MRC5, 6 × 10^-4 M): 0%
- apparent toxicity (Toxicity on mice; 3 g/kg daily for 8 days): No apparent toxicity
- LD50 (Toxicity on mice; mouse, in vivo, ip, read-out: DL50 (the source's name)): > 3000 mg/kg
- inhibition at 100 µM (HeLa [6]; 1 × 10^-4 M): 0%
- inhibition at 200 µM (HeLa [6]; 2 × 10^-4 M): 20%
- inhibition at 400 µM (HeLa [6]; 4 × 10^-4 M): 80%
- inhibition at 50 µM (HeLa [6]; 5 × 10^-5 M): 0%
- inhibition at 600 µM (HeLa [6]; 6 × 10^-4 M): 90%
- Cellular growth, percentage of inhibition (NRK [7]; 6 × 10^-4 M): Dead
- inhibition at 200 µM (NRK [7]; Rattus norvegicus, 96 h, 2 × 10^-4 M, read-out: Cellular growth, percentage of inhibition): 30%
- inhibition at 400 µM (NRK [7]; Rattus norvegicus, 96 h, 4 × 10^-4 M, read-out: Cellular growth, percentage of inhibition): 60%
- Cellular growth, percentage of inhibition (293; 293, 1 × 10^-4 M): 50%
- Cellular growth, percentage of inhibition (293; 293, 2 × 10^-4 M): 90%
- Cellular growth, percentage of inhibition (293; 293, 4 × 10^-4 M): Dead
- Cellular growth, percentage of inhibition (293; 293, 5 × 10^-5 M): 20%
- Cellular growth, percentage of inhibition (293; 293, 6 × 10^-4 M): Dead
- Cellular growth, percentage of inhibition (HEp2; HEp2, 6 × 10^-4 M): Dead
- inhibition at 100 µM (HEp2; Homo sapiens, HEp-2, 96 h, HEp2, 1 × 10^-4 M, read-out: Cellular growth, percentage of inhibition): 0%
- inhibition at 200 µM (HEp2; Homo sapiens, HEp-2, 96 h, HEp2, 2 × 10^-4 M, read-out: Cellular growth, percentage of inhibition): 20%
- inhibition at 400 µM (HEp2; Homo sapiens, HEp-2, 96 h, HEp2, 4 × 10^-4 M, read-out: Cellular growth, percentage of inhibition): 80%
- inhibition at 50 µM (HEp2; Homo sapiens, HEp-2, 96 h, HEp2, 5 × 10^-5 M, read-out: Cellular growth, percentage of inhibition): 0%
- inhibition at 100 µM (NRK B77 [8]; NRK B77, 1 × 10^-4 M): 0%
- inhibition at 200 µM (NRK B77 [8]; NRK B77, 2 × 10^-4 M): 0%
- inhibition at 400 µM (NRK B77 [8]; NRK B77, 4 × 10^-4 M): 50%
- inhibition at 50 µM (NRK B77 [8]; NRK B77, 5 × 10^-5 M): 0%
- inhibition at 600 µM (NRK B77 [8]; NRK B77, 6 × 10^-4 M): 60%
- inhibition of the RALD activity ([9]; 1 mM, 30 minutes): total inhibition
- remaining activity at 800 µM ([9]; 0.5 h, 0.8 mM, 30 minutes): ~10%
- remaining activity at 200 µM ([9]; 1 h, 0.2 mM, 60 minutes): < 25%
